Measured values as given in US20260021186A1, “Fatty Acid-D-Amino Acid Peptides Conjugates as Anaplerotic Compounds for Use in Treating Propionic Acidemia, Methylmalonic Acidurias, and Energy Metabolic Disorders” (University of Pittsburgh - Of the Commonwealth System of …, priority 2022, published 2026).

Key:
Format in all cases: cell-based, human
HEK293 PCCA−/− cells [1] = assay: Lysine succinylation of cellular proteins by immunofluorescence confocal microscopy; settings: FIGS. 9C, 9D; 30 μM and 90 μM; media without glucose, pyruvate, and glutamine
Procedure: FIGS. 9A-9F are a comparison of lysine succinylation of cellular proteins visualized by immunofluorescence confocal microscopy in human HEK293 control and HEK293 PCCA^−/− cells untreated (FIGS. 9A and 9B) and treated with 30 μM and 90 μM of PMA007 (FIG. 9C) or 30 μM and 90 μM of PMA010 (FIG. 9D). The cells in FIGS. 9B, 9C, and 9D were grown in media without glucose, pyruvate, and glutamine. Scale bar=20 μm. FIG. 9E is a bar graph showing the quantification of the percent change in lysine succinylation (green) signal, from the immunofluorescence confocal micrographs of FIGS. 9B and 9C, in response to the treatment of PMA007. FIG. 9F is a bar graph showing the quantification of the percent change in lysine succinylation (green) signal, from the immunofluorescence confocal micrographs of FIGS. 9B and 9D, in response to the treatment of PMA010. Asterisks indicate statistical significance calculated at the raw data level (n=3); **P<0.01. ****P<0.0001 statistically compared to untreated. Statistical analysis used T-test.
FIGS. 9A-9F are a comparison of lysine succinylation of cellular proteins visualized by immunofluorescence confocal microscopy in human HEK293 control and in untreated and treated HEK293 PCCA^−/− knock out cells. […] The PMA007 treatment data in the bar graph of FIG. 9E are the quantitation of the images of FIG. 9C compared to untreated control in FIG. 9B. […]

HEK293 PCCA−/− cells [2] = assay: Propionyl-CoA alternative metabolites excreted in culture media (mass spectrometry); settings: 72 hours; relative to untreated cells
Procedure: FIGS. 14A-14D are graphs showing the quantitation of propionyl-CoA alternative metabolites excreted in the media of FB859 patient and HEK293 PCCA^−/− cultured cells treated with PMA007 or PMA010 for 72 hours: propionylcarnitine (C3-carnitine; FIG. 14A), propionylglycine (C3-glycine; FIG. 14B), hydroxypropionylcarnitine (C3OH-carnitine; FIG. 14C), and hydroxypropionyl glycine (C3OH-glycine, FIG. 14D). Data are presented as percentage to untreated cells. In media of Fb859 cells, the control (Cntl, 0 μM) treatment with glucose and pyruvate, media propionylcarnitine was 0.17 μM, while in the untreated control, which had no glucose or pyruvate, and stripped FBS (no fat) included in the media, propionylcarnitine was 0.433 μM.
Acylcarnitine levels determination: Media from control, Fb826, and treated and untreated patient, Fb859, cells were collected from either the immunohistochemistry cultures or the Seahorse oxygen consumption 96-well plate assays and analyzed for the levels of short chain acylcarnitines plus propionylglycine and hydroxypropionylglycine using a triple quadrupole API4000 mass spectrometer (AB Sciex™, Framingham, MA) equipped with a ExionLC™ 100 HPLC system (Shimadzu Scientific Instruments™, Columbia, MD) as outlined as previously published.

[3] = test system: ETC components (UQCRC2, COXII, NDUFB8) in PA cell line Fb859 and MMA cell line Fb857; assay: Detection of ETC components by western blots; settings: FIG. 11; 72 h treatment
Procedure: FIG. 11 are western blots showing correction in the signals of Complex III subunit Core 2 48-kDa (UQCRC2), Complex IV subunit II 22-kDa (COXII), and Complex I subunit NDUFB8 18-kDa that is most pronounced in the propionic acidemia (PA) cell line Fb859 compared to the methylmalonic aciduria (MMA) cell line Fb857.
Detection of ETC components by western blots: Same as above, media A for control, and media B for untreated and treated cells in T75 flasks. Amounts of compounds were added appropriately directly to cell culture media when the cultures were about 85-90 confluent. The cultures were allowed to grow for 72 h at 37° C./5% CO2, and then harvested. Harvested cell pellets were stored at −80° C. until immune and enzymatic assay and western blot analyses of OXPHOS subunits. One to 1.5 ml media samples were also stored at −80° C. for.

C[C@@H](NC(=O)CCCCC(=O)O)C(=O)N[C@H](Cc1c[nH]cn1)C(=O)O [PMA010, 6-(((R)-1-(((R)-1-carboxy-2-(1H-imidazol-4-yl)ethyl)amino)-1-oxopropan-2-yl)amino)-6-oxohexanoic acid]
lysine succinylation (green) signal (HEK293 PCCA−/− cells [1]): green color was restored
reduction in hydroxypropionyl glycine in media (HEK293 PCCA−/− cells [2]): 80%
reduction in propionylcarnitine in media (HEK293 PCCA−/− cells [2]): 59%
reduction in propionylglycine in media (HEK293 PCCA−/− cells [2]): 41%
correction in the signals of UQCRC2, COXII and NDUFB8 (western blot) [3]: better effect compared to PMA007
